Source: patent publication US7169785B2, “Methods and compositions of novel triazine compounds” (Reddy US Therapeutics, Inc., priority 2001, dated 2007)
Read-outs that look alike come from different tables or passages of the source.

Tests used:
cells = assay: Cytotoxicity / lactate dehydrogenase assay and visual observation of cells; format: cell-based; details: 10 uM
Description: Assays for determining the activity of compounds capable of cytotoxic activity include those taught in herein and others that are well known in the art. In general, to determine if there is cytotoxic activity associated with a compound, cells of a particular type, in a growing stage or a quiescient stage, are treated with the compound of interest. Various parameters of cell death or cessation are used to measure the effects of the compound. For example, the amount of nucleic acid or protein synthesis can be measured or visual observation of the state of the cells, such as release from the substrate, can be used to measure the state of the cells.
An appropriate number of cells are plated in four 96-well plates, one plate for “day 0” and three plates for days 1–3. Cells are treated with at least one compound of the present invention in varying concentrations with and without the apoptosis inducer cisplatin (2 μM) (“+cis” or “−cis”). Unteated cells are also assayed with and without cisplatin. After transfection, the plates are incubated at 37° C. overnight.
An appropriate number of cells are plated in four 96-well plates, one plate for “day 0” and three plates for days 1–3. Cells are treated with at least one compound of the present invention in varying concentrations. The negative control cells have normal media conditions, a duplicate set of wells is treated with the composition in which the compound is provided, but there is no added compound and the positive control cells are treated with the apoptosis inducer cisplatin (2 μM). All of the cells are transfected with a vector having a promoter that is responsive to apoptosis conditions. When apoptosis occurs, the promoter is turned on and the lactic dehydrogenase gene is activated and the enzyme protein is made and active. Activity is easily detected with a color change. After transfection, the plates are incubated at 37° C. overnight.
About 8 mls of warmed alpha MEM LDH lysis buffer (2% Triton X100) and about 8 mls of culture media (½ dilution) are combined. Two 96-well v-bottom plates are prepared, one labeled “lysis” and one labeled “supernatant.” To lyse the cells, about 200 μl Alpha MEM lysis buffer (diluted ½) is added to one test plate from which the supernatant has been removed and added to the plate labeled supernatant. After mixing, about 200 μl of lysed cells are transferred to the lysis plate. Both the lysis and supernatant plates are centrifuged at about 1600 rpm for about 10 min. After centrifugation, about 100 μl of both the supernatant or lysate is transferred to corresponding 96-well flat-bottomed plates.
The assay for cytotoxicity uses the Cytotoxicity Detection Kit (LDH) from Roche Diagnostics Corp. (Indianapolis, Ind.). Using the directionts provided, the dye solution is mixed and added each well of the lysate and supernatant plate and incubated for up to 20–25 min at 15–25° C. in the dark.

IL-6 [1] = assay: AGE (G-HSA)-induced inflammatory response determined by IL-6 ELISA in HAEC; format: cell-based, human; details: Homo sapiens; for activity at 10 µM: 24 h, Compds tested @ 10 uM, IL6, read-out: % IL6 production compare to AGE stimulation of IL6 (100%); for IC50: IL6, unit inferred, read-out: IC50 (AGE stimulation of IL6)
Description: Human aortic endothelial cells (HAEC, Clonetics) were cultured according to manufacturer in growth medium (Clonetics): basal medium containing human epidermal growth factor, hydrocortisone, vascular endothelial growth factor, heparin binding growth factor-B, long R3-insulin-like growth factor-1, ascorbic acid, gentamicin/amphotericin and 5% FBS. These cell were allowed to reach at least 90% confluency before subjected to experimental treatments. […] Tumor necrosis factor α was from R&D Systems.
All treatments, compound-added and controls were carried out in serum free media containing 0.2% albumin. Media from all conditions were collected and used for IL-6 ELISA.
(§1) IL-6 ELISA was carried out using human IL-6 DuoSet ELISA development kit as described by manufacturer (R&D Systems). Mouse anti-human Il-6 was used as the capture antibody (2 ug/ml) and biotinylated goat anti-human IL-6 (200 ng/ml) was used as the detection antibody. Culture media were incubated with capture antibody (in 96 well) for 2 h at room temperature. Wells were washed three times with wash buffer (0.05% tween-20 in phosphate buffered saline (PBS) pH 7.4) followed by incubation with detection antibody for 2 h at room temperature. Following three washes wells were incubated with Streptavidin-HRP for 20 min. Color development was read at 450 nm in a Microplate reader.

IL-6 [2] = assay: TNF-α-induced IL-6 production determined by IL-6 ELISA in HAEC; format: cell-based, human; details: HAEC; for activity at 10 µM / IC50: Homo sapiens, IL6; for activity at 10 µM: 24 h, Compds tested @ 10 uM, read-out: % IL6 production compare to TNF stimulation of IL6 (100%); for IC50: unit inferred, read-out: IC50 (TNF stimulation of IL6); for Inhibition of TNF-induced IL6 production: class of % of control IL6 production
Description: Human aortic endothelial cells (HAEC, Clonetics) were cultured according to manufacturer in growth medium (Clonetics): basal medium containing human epidermal growth factor, hydrocortisone, vascular endothelial growth factor, heparin binding growth factor-B, long R3-insulin-like growth factor-1, ascorbic acid, gentamicin/amphotericin and 5% FBS. These cell were allowed to reach at least 90% confluency before subjected to experimental treatments. Glycated human serum albumin (G-HSA) was from US Biologicals. Tumor necrosis factor α was from R&D Systems.
[…] All treatments, compound-added and controls were carried out in serum free media containing 0.2% albumin. Media from all conditions were collected and used for IL-6 ELISA.
as §1

[3] = test system: Human aortic smooth muscle cells; assay: Smooth muscle cell proliferation assay (anti-proliferation assay, perlecan); format: cell-based
Description: Human aortic smooth muscle cells (Clonetics) were used. Cells were grown in basal medium containing 5% fetal bovine serum supplemented with growth factors, basic fibroblast growth factor, epidermal growth factor and insulin. […] The cells were then serum starved for 24 h to induce quiescence. Fresh growth medium containing no compound or 10 μM compound was then added and further incubated for 24 h. Cell number was determined by using a cell proliferation assay kit (Celltiter96 AQueous from Promega).

[4] = Homo sapiens, anti-proliferation assay (perlecan), read-out: Activity (note 1)
[5] = Homo sapiens, anti-proliferation assay (perlecan), read-out: Avg IC-50
[6] = Homo sapiens, read-out: Activity (note 1)
[7] = Homo sapiens, read-out: Avg IC-50

With `COc1ccc(Nc2nc(NC3CC3)nc(N(C)C3CCN(C)CC3)n2)cc1Cl` the “cell death under Inflammation Data” value (cells) was 15%.
In the case of `CCN1CCCC1CNc1nc(NCCN(C)C)nc(Nc2ccc(OC)c(F)c2)n1` (centres unmarked) [Compound 68, N^2-[2-(dimethylamino)ethyl]-N^4-[(1-ethyl-2-pyrrolidinyl)methyl]-N^6-(3-fluoro-4-methoxyphenyl)-1,3,5-triazine-2,4,6-triamine], the activity at 10 µM (IL-6 [1]) is reported as 40%, the IC50 (IL-6 [1]) is reported as 7.7 µM and the activity at 10 µM (IL-6 [2]) is reported as 1%.
For `CCN1CCCC1CNc1nc(Nc2ccc(OC)c(F)c2)nc(N2CCN(CC(=O)N3CCCC3)CC2)n1` (centres unmarked) [Compound 69, N^2-[(1-ethyl-2-pyrrolidinyl)methyl]-N^4-(3-fluoro-4-methoxyphenyl)-N^6-{4-[2-oxo-2-(1-pyrrolidinyl)ethyl]-1-piperazinyl}-1,3,5-triazine-2,4-diamine], the activity at 10 µM (IL-6 [1]) was 5% and the activity at 10 µM (IL-6 [2]) was 1%.
Compound `CCN1CCCC1CNc1nc(NCC2CCCN2CC)nc(Nc2ccc(OC)c(F)c2)n1` (centres unmarked) [Compound 70, N^2,N^4-bis[(1-ethyl-2-pyrrolidinyl)methyl]-N^6-(3-fluoro-4-methoxyphenyl)-1,3,5-triazine-2,4,6-triamine] has an activity at 10 µM (IL-6 [1]) of 35% and an activity at 10 µM (IL-6 [2]) of 1%.
`CCN1CCCC1CNc1nc(NCCN2CCCCC2)nc(Nc2ccc(OC)c(F)c2)n1` (centres unmarked) [Compound 71, N^2-[(1-ethyl-2-pyrrolidinyl)methyl]-N^4-(3-fluoro-4-methoxyphenyl)-N^6-[2-(1-piperidinyl)ethyl]-1,3,5-triazine-2,4,6-triamine] gave an activity at 10 µM (IL-6 [1]) of 29% and an activity at 10 µM (IL-6 [2]) of 1%.
Compound `CCN1CCCC1CNc1nc(Nc2ccc(OC)c(F)c2)nc(N2CCN(Cc3ccc4c(c3)OCO4)CC2)n1` (centres unmarked) [Compound 72, N^6-[4-(1,3-benzodioxol-5-ylmethyl)-1-piperazinyl]-N^2-[(1-ethyl-2-pyrrolidinyl)methyl]-N^4-(3-fluoro-4-methoxyphenyl)-1,3,5-triazine-2,4-diamine] has an activity at 10 µM (IL-6 [1]) of 31% and an activity at 10 µM (IL-6 [2]) of 5%.
With `CCN1CCCC1CNc1nc(Nc2ccc(OC)c(F)c2)nc(N2CCN(c3ccccn3)CC2)n1` (centres unmarked) [Compound 73, N^2-[(1-ethyl-2-pyrrolidinyl)methyl]-N^4-(3-fluoro-4-methoxyphenyl)-N^6-[4-(2-pyridinyl)-1-piperazinyl]-1,3,5-triazine-2,4-diamine] the activity at 10 µM (IL-6 [1]) was 20%, the IC50 (IL-6 [1]) was 7.5 µM and the activity at 10 µM (IL-6 [2]) was 1%. For the same compound, the IC50 (IL-6 [2]) was 8.7 µM.
For `CCN1CCCC1CNc1nc(NCCCn2ccnc2)nc(Nc2ccc(OC)c(F)c2)n1` (centres unmarked) [Compound 75, N^2-[(1-ethyl-2-pyrrolidinyl)methyl]-N^4-(3-fluoro-4-methoxyphenyl)-N^6-[3-(1H-imidazol-1-yl)propyl]-1,3,5-triazine-2,4,6-triamine], the activity at 10 µM (IL-6 [1]) was 46% and the activity at 10 µM (IL-6 [2]) was 43%.
With `CCN1CCCC1CNc1nc(Nc2ccc(OC)c(F)c2)nc(NC2CCCCCC2)n1` (centres unmarked) [Compound 95, N^2-cycloheptyl-N^4-[(1-ethyl-2-pyrrolidinyl)methyl]-N^6-(3-fluoro-4-methoxyphenyl)-1,3,5-triazine-2,4,6-triamine] the activity at 10 µM (IL-6 [1]) was 1%, the IC50 (IL-6 [1]) was 6.6 µM and the “Inhibition of TNF-induced IL6 production” value (IL-6 [2]) was “++++ (between 0 and about 25% of IL6 production compared to cells that did not receive compound (or per cent of control IL6 production))”. The activity at 10 µM (IL-6 [2]) was 5%, the IC50 (IL-6 [2]) was 2.8 µM and the IC50 [3, 4] was > 7 µM. The IC50 [3, 5] was 7.3 µM.
In the case of `COc1ccc(Nc2nc(NCCCN3CCCC3=O)nc(NC3CCCCCC3)n2)cc1F` [Compound 99, 1-[3-({4-(cycloheptylamino)-6-[(3-fluoro-4-methoxyphenyl)amino]-1,3,5-triazin-2-yl}amino)propyl]-2-pyrrolidinone], the activity at 10 µM (IL-6 [1]) is reported as 8%, the IC50 (IL-6 [1]) is reported as 6.04 µM and the activity at 10 µM (IL-6 [2]) is reported as 39%.
With `COc1ccc(Nc2nc(NCC3CCCCC3)nc(N(C)C3CCN(C)CC3)n2)cc1Cl` [Compound 103, N-(3-Chloro-4-methoxy-phenyl)-N′-cyclohexylmethyl-N″-methyl-N″-(1-methyl-piperidin-4-yl)-[1,3,5]triazine-2,4,6-triamine] the IC50 [3, 4] was > 7 µM and the IC50 [3, 5] was ~7 µM.
`CCCC(CCC)Nc1nc(Nc2ccc(OC)c(Cl)c2)nc(N(C)C2CCN(C)CC2)n1` [Compound 105, N-(3-Chloro-4-methoxy-phenyl)-N′-methyl-N′-(1-methyl-piperidin-4-yl)-N″-(1-propyl-butyl)-[1,3,5]triazine-2,4,6-triamine] was tested, and the IC50 [3, 4] was > 7 µM and the IC50 [3, 5] was ~7 µM.
In the case of `COc1ccc(Nc2nc(Cl)nc(NC3CCCCCC3)n2)cc1F` [Compound 127, 6-Chloro-N-cycloheheptyl-N′-(3-fluoro-4-methoxy-phenyl)-[1,3,5]triazine-2,4-diamine], the activity at 10 µM (IL-6 [2]) is reported as 48%, the IC50 [3, 4] is reported as > 7 µM and the IC50 [3, 5] is reported as 10 µM.
`COc1ccc(Nc2nc(NC3CCCCCC3)nc(N(C)C3CCN(C)CC3)n2)cc1Cl` [Compound 137, N-(3-Chloro-4-methoxy-phenyl)-N′-cycloheptyl-N″-methyl-N″-(1-methyl-piperidin-4-yl)-[1,3,5]triazine-2,4,6-triamine] gave an IC50 [3, 4] of 3 to 7 µM and an IC50 [3, 5] of 4 to 5 µM.
For `CCN1CCC[C@H]1CNc1nc(Nc2ccc(OC)c(F)c2)nc(NC2CCCCCC2)n1` [Compound 139, N^2-cycloheptyl-N^4-((S)-1-ethyl-pyrrolidin-2-ylmethyl)-N^6-(3-fluoro-4-methoxyphenyl)-1,3,5-triazine-2,4,6-triamine], the “Inhibition of TNF-induced IL6 production” value (IL-6 [2]) was “++++ (between 0 and about 25% of IL6 production compared to cells that did not receive compound (or per cent of control IL6 production))”, the activity at 10 µM (IL-6 [2]) was 16.1% and the IC50 [3, 6] was 3 to 7 µM. It also gave an IC50 [3, 7] of 4 to 5 µM.
`CCN1CCC[C@@H]1CNc1nc(Nc2ccc(OC)c(F)c2)nc(NC2CCCCCC2)n1` [Compound 140, N^2-cycloheptyl-N^4-((R)-1-ethyl-pyrrolidin-2-ylmethyl)-N^6-(3-fluoro-4-methoxyphenyl)-1,3,5-triazine-2,4,6-triamine] was tested, and the “Inhibition of TNF-induced IL6 production” value (IL-6 [2]) was “++++ (between 0 and about 25% of IL6 production compared to cells that did not receive compound (or per cent of control IL6 production))”, the activity at 10 µM (IL-6 [2]) was 12.6% and the IC50 [3, 6] was 3 to 7 µM. The IC50 [3, 7] was 4 to 5 µM.
For `CCN(CC)c1ccc(Nc2nc(NCC3CCCN3CC)nc(NC3CCCCCC3)n2)cc1Cl` (centres unmarked) [Compound 163], the IC50 ([3]; anti-proliferation assay (perlecan), read-out: Activity (note 1)) was > 7 µM and the IC50 ([3]; anti-proliferation assay (perlecan), read-out: Avg IC-50) was 8 to 10 µM.
In the case of `COc1ccc(Nc2nc(NC3CCCCCC3)nc(N(C)C3CCN(C)CC3)n2)cc1Br` [Compound 170], the IC50 [3, 4] is reported as > 7 µM and the IC50 [3, 5] is reported as 8 to 9 µM.
`CN1CCC(N(C)c2nc(Nc3ccc4ccccc4c3)nc(NC3CCCCCC3)n2)CC1` [N^2-cycloheptyl-N^4-methyl-N^4-(1-methyl-piperidin-4-yl)-N^6-naphthalen-2-yl-1,3,5-triazine-2,4,6-triamine] was tested, and the “activity in anti-proliferation assay (Perlecan)” value ([3]; same activity scale used in Table 3, in words) was “high activity”.
